Test results from publication PMC5218480 (PLoS ONE, 2017).

Test system: MV-4-11 cells
Assay: Gene expression microarray analysis (Affymetrix PrimeView) and GSEA
Type: cell-based, human
Design: RFU PODN (11730768_x_at) / Fold change /veh PODN (11730768_x_at) / RFU LINC00158 (11744669_a_at) / Fold change /veh LINC00158 (11744669_a_at) / RFU DUSP10 (11751237_a_at) / Fold change /veh DUSP10 (11751237_a_at) / RFU ID3 (11757404_x_at) / Fold change /veh ID3 (11757404_x_at) / RFU PLEKHG5 (11737974_s_at) / Fold change /veh PLEKHG5 (11737974_s_at) / RFU LRRC4B (11730491_at) / Fold change /veh LRRC4B (11730491_at) / RFU GIMAP4 (11747438_a_at) / Fold change /veh GIMAP4 (11747438_a_at) / RFU KRT8 (11758183_x_at) / Fold change /veh KRT8 (11758183_x_at) / RFU CNN1 (11734310_a_at) / Fold change /veh CNN1 (11734310_a_at) / RFU VPS37D (11726825_at) / Fold change /veh VPS37D (11726825_at) / RFU C10orf10 (11716522_x_at) / Fold change /veh C10orf10 (11716522_x_at) / RFU KIR2DL2 /// KIR2DL4 /// KIR2DL5A /// KIR2DL5B /// KIR2DS1 /// KIR2DS2 /// KIR2DS3 /// KIR2DS4 /// KIR3DL3 /// KIR3DL3 /// KIR3DS1 (11738374_at) / Fold change /veh KIR2DL2 /// KIR2DL4 /// KIR2DL5A /// KIR2DL5B /// KIR2DS1 /// KIR2DS2 /// KIR2DS3 /// KIR2DS4 /// KIR3DL3 /// KIR3DL3 /// KIR3DS1 (11738374_at) / RFU C1QL1 (11718748_at) / Fold change /veh C1QL1 (11718748_at) / RFU TMPRSS4 (11747572_a_at) / Fold change /veh TMPRSS4 (11747572_a_at) / RFU HAMP (11756126_x_at) / Fold change /veh HAMP (11756126_x_at) / RFU RNFT2 (11725882_a_at) / Fold change /veh RNFT2 (11725882_a_at) / RFU NR4A2 (11747474_a_at) / Fold change /veh NR4A2 (11747474_a_at) / RFU ABCC12 (11746883_a_at) / Fold change /veh ABCC12 (11746883_a_at) / RFU TMEM136 (11760407_x_at) / Fold change /veh TMEM136 (11760407_x_at) / RFU CLDN22 /// WWC2 (11732394_at) / Fold change /veh CLDN22 /// WWC2 (11732394_at) / RFU HLA-DPB1 (11760878_x_at) / Fold change /veh HLA-DPB1 (11760878_x_at) / RFU SPINT1 (11716480_a_at) / Fold change /veh SPINT1 (11716480_a_at) / RFU GAP43 (11754022_s_at) / Fold change /veh GAP43 (11754022_s_at) / RFU A4GNT (11735810_at) / Fold change /veh A4GNT (11735810_at) / RFU PRB3 (11715151_x_at) / Fold change /veh PRB3 (11715151_x_at) / RFU TUBB4B (11761932_at) / Fold change /veh TUBB4B (11761932_at) / RFU CAPN14 (11732068_a_at) / Fold change /veh CAPN14 (11732068_a_at) / RFU TMCC2 (11721928_a_at) / Fold change /veh TMCC2 (11721928_a_at) / RFU IRGQ (11745062_a_at) / Fold change /veh IRGQ (11745062_a_at) / RFU FAM174B (11720279_a_at) / Fold change /veh FAM174B (11720279_a_at) / RFU TMPRSS4 (11748680_a_at) / Fold change /veh TMPRSS4 (11748680_a_at) / RFU FAM212B (11763350_a_at) / Fold change /veh FAM212B (11763350_a_at) / RFU PLEKHG5 (11743358_a_at) / Fold change /veh PLEKHG5 (11743358_a_at) / RFU ZSCAN30 (11745921_a_at) / Fold change /veh ZSCAN30 (11745921_a_at) / RFU CMKLR1 (11741424_a_at) / Fold change /veh CMKLR1 (11741424_a_at) / RFU LOC101060620 /// MAPK8IP1 (11723275_at) / Fold change /veh LOC101060620 /// MAPK8IP1 (11723275_at) / RFU SPTSSB (11747773_x_at) / Fold change /veh SPTSSB (11747773_x_at) / RFU PRSS12 (11739890_at) / Fold change /veh PRSS12 (11739890_at) / RFU BIN1 (11741810_x_at) / Fold change /veh BIN1 (11741810_x_at) / RFU WNT11 (11732464_a_at) / Fold change /veh WNT11 (11732464_a_at) / RFU C10orf10 (11716521_a_at) / Fold change /veh C10orf10 (11716521_a_at) / RFU C5orf56 (11738089_at) / Fold change /veh C5orf56 (11738089_at) / RFU CYB561 (11721691_x_at) / Fold change /veh CYB561 (11721691_x_at) / RFU ANKRD19P (11752326_a_at) / Fold change /veh ANKRD19P (11752326_a_at) / RFU OR2T12 /// OR2T33 /// OR2T8 (11738714_s_at) / Fold change /veh OR2T12 /// OR2T33 /// OR2T8 (11738714_s_at) / RFU VCAN (11748164_a_at) / Fold change /veh VCAN (11748164_a_at) / RFU JSRP1 (11732532_at) / Fold change /veh JSRP1 (11732532_at) / RFU KRTAP10-11 (11738290_x_at) / Fold change /veh KRTAP10-11 (11738290_x_at) / RFU MYO3A (11730013_a_at) / Fold change /veh MYO3A (11730013_a_at) / RFU EBF3 (11725865_a_at) / Fold change /veh EBF3 (11725865_a_at) / RFU CAMK2N1 (11719241_x_at) / Fold change /veh CAMK2N1 (11719241_x_at) / RFU C5orf56 (11738088_a_at) / Fold change /veh C5orf56 (11738088_a_at) / RFU OLFML3 (11715873_a_at) / Fold change /veh OLFML3 (11715873_a_at) / RFU LOC100653217 /// NTM (11731650_a_at) / Fold change /veh LOC100653217 /// NTM (11731650_a_at) / RFU MAPK11 (11762145_a_at) / Fold change /veh MAPK11 (11762145_a_at) / RFU FIZ1 (11724087_x_at) / Fold change /veh FIZ1 (11724087_x_at) / RFU OASL (11726364_x_at) / Fold change /veh OASL (11726364_x_at) / RFU SOX15 (11748057_x_at) / Fold change /veh SOX15 (11748057_x_at) / RFU CD79A (11719716_a_at) / Fold change /veh CD79A (11719716_a_at) / RFU HIST1H1D (11736915_at) / Fold change /veh HIST1H1D (11736915_at) / RFU CASKIN2 (11723855_a_at) / Fold change /veh CASKIN2 (11723855_a_at) / RFU LOC730098 (11760151_x_at) / Fold change /veh LOC730098 (11760151_x_at) / RFU OR4N2 (11742367_at) / Fold change /veh OR4N2 (11742367_at) / RFU PRRT2 (11749266_a_at) / Fold change /veh PRRT2 (11749266_a_at) / RFU SNX32 (11753110_a_at) / Fold change /veh SNX32 (11753110_a_at) / RFU CDHR5 (11726645_a_at) / Fold change /veh CDHR5 (11726645_a_at) / RFU RCAN1 (11760418_a_at) / Fold change /veh RCAN1 (11760418_a_at) / RFU FAM167A (11723789_a_at) / Fold change /veh FAM167A (11723789_a_at) / RFU FAM26E (11764081_at) / Fold change /veh FAM26E (11764081_at) / RFU ISYNA1 (11749810_s_at) / Fold change /veh ISYNA1 (11749810_s_at) / RFU ACY1 (11761880_at) / Fold change /veh ACY1 (11761880_at) / RFU 11764098_at / Fold change /veh 11764098_at / RFU SAMD14 (11745864_x_at) / Fold change /veh SAMD14 (11745864_x_at) / RFU NPB (11741838_a_at) / Fold change /veh NPB (11741838_a_at) / RFU TMPRSS6 (11731388_a_at) / Fold change /veh TMPRSS6 (11731388_a_at) / RFU KRTAP10-2 (11738614_at) / Fold change /veh KRTAP10-2 (11738614_at) / RFU ARHGAP8 /// PRR5-ARHGAP8 (11727945_x_at) / Fold change /veh ARHGAP8 /// PRR5-ARHGAP8 (11727945_x_at) / RFU KRTAP5-7 /// NADSYN1 (11734609_at) / Fold change /veh KRTAP5-7 /// NADSYN1 (11734609_at) / RFU RASL12 (11751679_a_at) / Fold change /veh RASL12 (11751679_a_at) / RFU CDKN2B (11736163_a_at) / Fold change /veh CDKN2B (11736163_a_at) / RFU PRF1 (11729649_at) / Fold change /veh PRF1 (11729649_at) / RFU, ZNF638 /// ZNF638-IT1 / Fold change vs veh, ZNF638 /// ZNF638-IT1 / RFU, PANK3 / Fold change vs veh, PANK3 / RFU, SH3YL1 / Fold change vs veh, SH3YL1 / RFU, ZEB2 / Fold change vs veh, ZEB2 / RFU, NRIP1 / Fold change vs veh, NRIP1 / RFU, PTTG1IP / Fold change vs veh, PTTG1IP / RFU, CAPN2 / Fold change vs veh, CAPN2 / RFU, MED14 / Fold change vs veh, MED14 / RFU, SNORA58 / Fold change vs veh, SNORA58 / RFU, C1orf63 / Fold change vs veh, C1orf63 / RFU, LRRFIP1 / Fold change vs veh, LRRFIP1 / RFU, NDUFAF7 / Fold change vs veh, NDUFAF7 / RFU, SLC12A2 / Fold change vs veh, SLC12A2 / RFU, IBTK / Fold change vs veh, IBTK / RFU, ESF1 / Fold change vs veh, ESF1 / Fold change vs veh, TMEM50B / RFU, TAOK1 / Fold change vs veh, TAOK1 / RFU, ACBD3 / Fold change vs veh, ACBD3 / RFU, TMA16 / Fold change vs veh, TMA16 / RFU, RWDD3 / Fold change vs veh, RWDD3 / RFU, BCAT1 / Fold change vs veh, BCAT1 / RFU, EDEM3 / Fold change vs veh, EDEM3 / RFU, TMEM33 / Fold change vs veh, TMEM33 / RFU, WDR75 / Fold change vs veh, WDR75 / RFU, AHCTF1 / Fold change vs veh, AHCTF1 / RFU, TFRC / Fold change vs veh, TFRC / RFU, ZDHHC17 / Fold change vs veh, ZDHHC17 / RFU, NOM1 / Fold change vs veh, NOM1 / RFU, ARL8B / Fold change vs veh, ARL8B / RFU, ZBTB11 / Fold change vs veh, ZBTB11 / RFU, TAMM41 / Fold change vs veh, TAMM41 / RFU, KIAA1704 /// LOC100996395 / Fold change vs veh, KIAA1704 /// LOC100996395 / RFU, ING1 / Fold change vs veh, ING1 / RFU, TRMT61B / Fold change vs veh, TRMT61B / RFU, FUBP3 / Fold change vs veh, FUBP3 / RFU, TP53 / Fold change vs veh, TP53 / RFU, TNKS2 / Fold change vs veh, TNKS2 / RFU, ZFP14 / Fold change vs veh, ZFP14 / RFU, ACTR2 / Fold change vs veh, ACTR2 / RFU, PPP3R1 / Fold change vs veh, PPP3R1 / RFU, PIK3R1 / Fold change vs veh, PIK3R1 / RFU, HNRNPA1 / Fold change vs veh, HNRNPA1 / RFU, RNF170 / Fold change vs veh, RNF170 / RFU, ZNF28 / Fold change vs veh, ZNF28 / RFU, RNGTT / Fold change vs veh, RNGTT / RFU, OGT / Fold change vs veh, OGT / RFU, BRD1 / Fold change vs veh, BRD1 / RFU, MARS / Fold change vs veh, MARS / RFU, ZNF655 / Fold change vs veh, ZNF655 / RFU, FAHD1 / Fold change vs veh, FAHD1 / RFU, BDP1 / Fold change vs veh, BDP1 / RFU, LRRCC1 / Fold change vs veh, LRRCC1 / RFU, ARID1A / Fold change vs veh, ARID1A / RFU, ZNF146 / Fold change vs veh, ZNF146 / RFU, ZNF330 / Fold change vs veh, ZNF330 / RFU, GPN3 / Fold change vs veh, GPN3 / RFU, C9orf123 / Fold change vs veh, C9orf123 / RFU, N4BP2L2 / Fold change vs veh, N4BP2L2 / RFU, ARFIP1 / Fold change vs veh, ARFIP1 / RFU, FAM179B / Fold change vs veh, FAM179B / RFU, BCL10 / Fold change vs veh, BCL10 / RFU, UHRF1BP1L / Fold change vs veh, UHRF1BP1L / RFU, BET1 / Fold change vs veh, BET1 / RFU, CNOT2 / Fold change vs veh, CNOT2 / RFU, ZNF268 / Fold change vs veh, ZNF268 / Fold change vs veh, ZNF507 / RFU, DGCR2 / Fold change vs veh, DGCR2 / RFU, WDSUB1 / Fold change vs veh, WDSUB1 / Fold change vs veh, HSP90B1 /// MIR3652 / RFU, ADSS / Fold change vs veh, ADSS / RFU, GK / Fold change vs veh, GK / RFU, ZNF148 / Fold change vs veh, ZNF148 / RFU, TAF9 / Fold change vs veh, TAF9 / RFU, SLC1A5 / Fold change vs veh, SLC1A5 / RFU, SLMO2 / Fold change vs veh, SLMO2 / RFU, ABCC4 / Fold change vs veh, ABCC4 / RFU, LOC101060439 /// RAP1B / Fold change vs veh, LOC101060439 /// RAP1B / RFU, RFX7 / Fold change vs veh, RFX7 / RFU, GTPBP10 / Fold change vs veh, GTPBP10 / RFU, CNEP1R1 / Fold change vs veh, CNEP1R1 / RFU, BIVM-ERCC5 /// ERCC5 / Fold change vs veh, BIVM-ERCC5 /// ERCC5 / RFU, ILF3 / Fold change vs veh, ILF3 / RFU 11762660_at / Fold change /veh 11762660_at / RFU VCAN (11757783_s_at) / Fold change /veh VCAN (11757783_s_at) / RFU DDX43 (11728927_at) / Fold change /veh DDX43 (11728927_at) / RFU KRT8 (11758188_x_at) / Fold change /veh KRT8 (11758188_x_at) / RFU NKD1 (11759106_at) / Fold change /veh NKD1 (11759106_at) / RFU SRD5A1 (11742802_a_at) / Fold change /veh SRD5A1 (11742802_a_at) / RFU TPSAB1 /// TPSB2 (11721975_s_at) / Fold change /veh TPSAB1 /// TPSB2 (11721975_s_at) / RFU GSTM3 (11746129_a_at) / Fold change /veh GSTM3 (11746129_a_at) / RFU IL23R (11737362_x_at) / Fold change /veh IL23R (11737362_x_at) / RFU TMEM51 (11727254_a_at) / Fold change /veh TMEM51 (11727254_a_at) / RFU PIWIL2 (11732686_x_at) / Fold change /veh PIWIL2 (11732686_x_at) / RFU ORM1 (11744905_x_at) / Fold change /veh ORM1 (11744905_x_at) / RFU CCDC152 (11743942_at) / Fold change /veh CCDC152 (11743942_at) / RFU ECM1 (11717891_a_at) / Fold change /veh ECM1 (11717891_a_at) / RFU IL23R (11748794_a_at) / Fold change /veh IL23R (11748794_a_at) / RFU TNFAIP8L3 (11732012_x_at) / Fold change /veh TNFAIP8L3 (11732012_x_at) / RFU MBOAT4 (11741988_at) / Fold change /veh MBOAT4 (11741988_at) / RFU 11764193_at / Fold change /veh 11764193_at / RFU TMEM53 (11763286_at) / Fold change /veh TMEM53 (11763286_at) / RFU MAGEB2 (11727129_at) / Fold change /veh MAGEB2 (11727129_at) / RFU TMEM200A (11744735_a_at) / Fold change /veh TMEM200A (11744735_a_at) / RFU CCDC152 (11751479_a_at) / Fold change /veh CCDC152 (11751479_a_at) / RFU FAM211A (11726209_a_at) / Fold change /veh FAM211A (11726209_a_at) / RFU RGS16 (11746705_a_at) / Fold change /veh RGS16 (11746705_a_at) / RFU VCAN (11755009_s_at) / Fold change /veh VCAN (11755009_s_at) / RFU RHOB (11743442_s_at) / Fold change /veh RHOB (11743442_s_at) / RFU RGS16 (11720943_a_at) / Fold change /veh RGS16 (11720943_a_at) / RFU RGS16 (11720944_at) / Fold change /veh RGS16 (11720944_at) / RFU, VPS4B / Fold change vs veh, VPS4B / RFU, CREB1 / Fold change vs veh, CREB1 / RFU, DNAJC13 / Fold change vs veh, DNAJC13 / RFU, GNAQ / Fold change vs veh, GNAQ / RFU, CDK5R1 / Fold change vs veh, CDK5R1 / RFU, ZRANB3 / Fold change vs veh, ZRANB3 / RFU, CUL4A / Fold change vs veh, CUL4A / RFU, CCNY / Fold change vs veh, CCNY / RFU, UFL1 / Fold change vs veh, UFL1 / RFU, COG3 / Fold change vs veh, COG3 / RFU, DIAPH2 / Fold change vs veh, DIAPH2 / RFU, SKA2 / Fold change vs veh, SKA2 / RFU, AFF3 / Fold change vs veh, AFF3 / RFU, LMF1 / Fold change vs veh, LMF1 / RFU, IPO11 / Fold change vs veh, IPO11 / RFU, DFFB / Fold change vs veh, DFFB / RFU, FOXP1 / Fold change vs veh, FOXP1 / RFU, CARD8 / Fold change vs veh, CARD8 / RFU, STRN3 / Fold change vs veh, STRN3 / RFU, ADK / Fold change vs veh, ADK / RFU, RASSF2 / Fold change vs veh, RASSF2 / RFU, WIPF1 / Fold change vs veh, WIPF1 / RFU, LARP1B / Fold change vs veh, LARP1B / RFU, RASA1 / Fold change vs veh, RASA1 / RFU, RB1 / Fold change vs veh, RB1 / RFU, PPFIA1 / Fold change vs veh, PPFIA1 / RFU, MAT2A / Fold change vs veh, MAT2A / RFU, CCT5 / Fold change vs veh, CCT5 / RFU, WDR92 / Fold change vs veh, WDR92 / RFU, CUX1 / Fold change vs veh, CUX1 / RFU, TTC7A / Fold change vs veh, TTC7A / RFU, TMEM135 / Fold change vs veh, TMEM135 / RFU, DEPTOR / Fold change vs veh, DEPTOR / RFU, CPM / Fold change vs veh, CPM / RFU, DNAJB6 / Fold change vs veh, DNAJB6 / RFU, CACNA2D3 / Fold change vs veh, CACNA2D3 / RFU, DTX4 / Fold change vs veh, DTX4 / RFU, TFCP2 / Fold change vs veh, TFCP2 / RFU, GMCL1 /// GMCL1P1 / Fold change vs veh, GMCL1 /// GMCL1P1 / RFU, AEBP2 / Fold change vs veh, AEBP2 / RFU, SNHG1 /// SNORD22 /// SNORD25 /// SNORD26 /// SNORD27 /// SNORD28 /// SNORD29 /// SNORD31 / Fold change vs veh, SNHG1 /// SNORD22 /// SNORD25 /// SNORD26 /// SNORD27 /// SNORD28 /// SNORD29 /// SNORD31 / Fold change (Aza/veh), C12orf56 (ProbeSet 11735607_a_at) / Fold change (ACY-1035/veh), C12orf56 (ProbeSet 11735607_a_at) / Fold change (Aza/veh), FGFR1OP (ProbeSet 11751329_s_at) / Fold change (ACY-1035/veh), FGFR1OP (ProbeSet 11751329_s_at) / Fold change (Aza/veh), VPS36 (ProbeSet 11739960_a_at) / Fold change (ACY-1035/veh), VPS36 (ProbeSet 11739960_a_at) / RFU SYPL1 (11715823_x_at) / Fold change /veh SYPL1 (11715823_x_at) / RFU IGFBP7 (11715501_s_at) / Fold change /veh IGFBP7 (11715501_s_at) / RFU REEP3 (11722064_at) / Fold change /veh REEP3 (11722064_at) / RFU IGLL1 (11728026_x_at) / Fold change /veh IGLL1 (11728026_x_at): dose or concentration left out as unconfirmed
Settings: MV-4-11 cells, 48 hours

Nc1ncn([C@@H]2O[C@H](CO)[C@@H](O)[C@H]2O)c(=O)n1 [azacitidine]
Fold change /veh ORM1 (11744905_x_at): 1.26
